This note sets out measurements from ChEMBL document CHEMBL1201862, “PubChem BioAssay data set” (2004).

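In this assay, cells in 96-well plates receive the compound at five concentrations for 48 hours. Endpoints are linearly interpolated between the surrounding concentrations. The concentration for 50% growth inhibition is given as GI50.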 The source made the active and inactive calls. Cut-off read from the data, not from the text of the source: active = GI50 up to about 1.1 µM and inactive = higher. Where only a bound is given, the exact number is not on record here.

Test systems include HCT-15; HOP-62; SK-OV-3; SK-MEL-28; SF-268; UACC-62; NCI-H23; Hs-578T; SF-539; M14; SN12C; NCI-H460; K562; OVCAR-8; MCF7; RXF 393; CCRF-CEM; HCC 2998; MDA-N; UO-31.
Holding throughout (test): NCI anticancer screen, dose series, 48 h

On to `CN(C)CCCc1c2ccccc2nc2ccc(Cl)cc12`, for which the GI50 was 30.5 µM in the experiment on HCT-15; 14.5 µM (inactive) in the experiment with HOP-62; 20.7 µM (inactive) in the experiment with SK-OV-3; 18.3 µM (inactive) in the experiment with SK-MEL-28; 14.6 µM (inactive) in the experiment with SF-268; 18 µM (inactive) in the experiment with UACC-62. For the same compound, the GI50 in the experiment on NCI-H23 was 30.3 µM (inactive); in the experiment on Hs-578T, 16.5 µM (inactive); with SF-539 it was 16.6 µM (inactive); in the experiment on M14 it was 14.2 µM (inactive); with SN12C, 10.3 µM (inactive); in the experiment with NCI-H460, 12.1 µM (inactive). The GI50 in the experiment on K562 is 19.1 µM (inactive); with OVCAR-8, 15.9 µM (inactive); with MCF7, 6.76 µM (inactive); in the experiment on RXF 393, 14.1 µM (inactive); in the experiment with CCRF-CEM, 9.16 µM (inactive).
As to `Nn1c(CCCCCCCCc2nnc(COc3ccc(Cl)cc3Cl)n2N)nnc1COc1ccc(Cl)cc1Cl`, the GI50 is 56.6 µM (inactive) in the experiment on HCC 2998; 37.7 µM with HCT-15; > 10 µM (inactive) in the experiment on SK-OV-3; 62.5 µM (inactive) with MDA-N; 68.5 µM (inactive) with SK-MEL-28; 33 µM (inactive) with SF-268. The GI50 with UACC-62 is 38.6 µM (inactive); in the experiment on NCI-H23 it was 38 µM (inactive); with UO-31, 47.1 µM (inactive); in the experiment with M14, 49.3 µM (inactive); with SN12C it was 22.2 µM (inactive); in the experiment on NCI-H460 it was 63.8 µM (inactive). Besides, the results for the GI50 in the experiment on K562, in the experiment with MCF7 and in the experiment on RXF 393 were 63.8 µM (inactive), 34.9 µM (inactive) and 38.5 µM (inactive), respectively.
Regarding `Brc1ccc2c(c1)C1=C(CO2)Cc2ccccc2O1`, the GI50 was 17.2 µM (inactive) in the experiment with HCC 2998; 17.3 µM with HCT-15; 15.6 µM (inactive) in the experiment on HOP-62; 21.5 µM (inactive) in the experiment with SK-OV-3; 13.2 µM (inactive) in the experiment with MDA-N; 19.1 µM (inactive) in the experiment with SF-268. The GI50 was 17.2 µM (inactive) in the experiment on UACC-62; 16.3 µM (inactive) in the experiment with NCI-H23; 16.5 µM (inactive) with UO-31; 18.6 µM (inactive) with SF-539; 19.3 µM (inactive) in the experiment on M14; 18.8 µM (inactive) with SN12C. The GI50 with K562 is 16.2 µM (inactive); in the experiment with OVCAR-8 it was 20.7 µM (inactive); with CCRF-CEM, 39.4 µM (inactive).
Regarding `ClCCCc1ccccc1C1=NCCc2ccccc21`, the GI50 in the experiment on HCC 2998 was 40.3 µM (inactive); with HCT-15, more than 100 µM; with HOP-62 it was > 100 µM (inactive); in the experiment with SK-OV-3, > 100 µM (inactive); with SK-MEL-28, > 100 µM (inactive); with SF-268 it was 49.7 µM (inactive). Further, the GI50 is 56.2 µM (inactive) in the experiment on UACC-62; 15.8 µM (inactive) with NCI-H23; > 100 µM (inactive) in the experiment on UO-31; 31.7 µM (inactive) with Hs-578T; > 100 µM (inactive) with SF-539; > 100 µM (inactive) with M14. Moreover, the GI50 with SN12C is 48.4 µM (inactive); in the experiment with NCI-H460 it was 43.9 µM (inactive); in the experiment with K562 it was 13.7 µM (inactive); in the experiment on OVCAR-8, 24.9 µM (inactive); with MCF7, 66.2 µM (inactive); in the experiment with RXF 393, > 100 µM (inactive). In addition, in the experiment on CCRF-CEM, the GI50 is > 100 µM (inactive).
Regarding `C=CCN(Cc1ccncc1)C(=O)C(O)(c1ccccc1)c1ccccc1`, the GI50 in the experiment with HCC 2998 is > 100 µM (inactive); with HCT-15 it was 65.9 µM; in the experiment with HOP-62, > 100 µM (inactive); in the experiment on SK-OV-3, > 100 µM (inactive); in the experiment on MDA-N, 45.8 µM (inactive); in the experiment with SK-MEL-28 it was 76.4 µM (inactive). The GI50 with SF-268 was > 100 µM (inactive); in the experiment on UACC-62, 39.1 µM (inactive); with NCI-H23, 54.3 µM (inactive); in the experiment with UO-31, 17.5 µM (inactive); with SF-539, 70.6 µM (inactive); in the experiment on M14 it was 56 µM (inactive). The GI50 in the experiment on SN12C is > 100 µM (inactive); with K562, 45.2 µM (inactive); with OVCAR-8 it was 86.9 µM (inactive); in the experiment with MCF7 it was 59.3 µM (inactive); in the experiment with RXF 393, > 100 µM (inactive); in the experiment with CCRF-CEM it was 35.8 µM (inactive).
In the case of `CNC(=O)N1CN(c2ccccc2)C2(CCN(Cc3ccccc3)CC2)C1=O`, the GI50 is 9.84 µM (inactive) in the experiment with HCC 2998; 15 µM in the experiment on HCT-15; > 100 µM (inactive) in the experiment on HOP-62; 4.18 µM (inactive) in the experiment with SK-OV-3; 29.2 µM (inactive) with MDA-N; > 100 µM (inactive) in the experiment on SK-MEL-28. Further, the GI50 was > 100 µM (inactive) in the experiment on SF-268; 69.8 µM (inactive) with UACC-62; > 100 µM (inactive) in the experiment with NCI-H23; 11.3 µM (inactive) in the experiment on UO-31; 34.7 µM (inactive) with SF-539; > 100 µM (inactive) in the experiment with M14. Moreover, the GI50 with SN12C was > 100 µM (inactive); in the experiment with K562 it was 31.8 µM (inactive); with OVCAR-8 it was > 100 µM (inactive); in the experiment on MCF7, 8.93 µM (inactive); in the experiment with RXF 393, > 100 µM (inactive); with CCRF-CEM, 53.5 µM (inactive).
In the case of `CC(=O)NCCSC(=O)c1ccccc1`, the GI50 in the experiment on HCT-15 was 0.156 µM; in the experiment on HOP-62, 0.148 µM (active); in the experiment with SK-OV-3 it was 1.13 µM (inactive); with SK-MEL-28, 0.268 µM (active); with SF-268 it was 0.0977 µM (active); with UACC-62 it was 0.013 µM (active). Also, the GI50 in the experiment with NCI-H23 was 0.0559 µM (active); in the experiment with UO-31 it was 0.264 µM (active); in the experiment on Hs-578T, 0.479 µM (active); in the experiment with SF-539 it was 0.387 µM (active); with M14 it was 0.0923 µM (active); in the experiment on SN12C it was 0.0853 µM (active). Besides, the GI50 in the experiment with NCI-H460 was < 0.033 µM (active); with K562, 0.285 µM (active); in the experiment with OVCAR-8, 0.192 µM (active); in the experiment with MCF7 it was 0.0653 µM (active); in the experiment with RXF 393, 0.112 µM (active); with CCRF-CEM, < 0.0153 µM (active).
Regarding `CCOC(CCCN1CCC2(CC1)C(=O)N(C)CN2c1ccccc1)(OCC)c1ccc(F)cc1`, the GI50 with HCC 2998 is 8.85 µM (inactive); in the experiment on HCT-15, 10.1 µM; in the experiment on HOP-62 it was 4.6 µM (inactive); in the experiment on SK-OV-3, 21.8 µM (inactive); in the experiment with MDA-N, 11.6 µM (inactive); in the experiment on SK-MEL-28, 16.8 µM (inactive). Further, the GI50 with SF-268 is 12.9 µM (inactive); with UACC-62, 16 µM (inactive); in the experiment with NCI-H23, 16.6 µM (inactive); with UO-31, 7.01 µM (inactive); in the experiment on SF-539 it was 3.77 µM (inactive); with M14, 10.7 µM (inactive). Moreover, the GI50 in the experiment with SN12C is 10.3 µM (inactive); in the experiment with K562, 14 µM (inactive); with OVCAR-8, 15.4 µM (inactive); in the experiment with MCF7, 3.8 µM (inactive); with RXF 393, 19.2 µM (inactive); in the experiment on CCRF-CEM, 4.42 µM (inactive).
Take `COc1cc(NCc2ccc3nc(OC)c(OC)nc3c2)cc(OC)c1OC`: the GI50 is > 100 µM (inactive) in the experiment with HCC 2998; more than 100 µM with HCT-15; > 100 µM (inactive) in the experiment with HOP-62; > 100 µM (inactive) in the experiment with SK-OV-3; > 100 µM (inactive) with MDA-N; > 100 µM (inactive) in the experiment on SK-MEL-28. Moreover, the GI50 in the experiment on SF-268, in the experiment on UACC-62, in the experiment on NCI-H23, with UO-31, in the experiment with SF-539 and in the experiment on M14 was > 100 µM (inactive) each time. Besides, the GI50 in the experiment with SN12C was > 100 µM (inactive); in the experiment with NCI-H460 it was > 100 µM (inactive); in the experiment with K562 it was 97.3 µM (inactive); in the experiment with OVCAR-8, > 100 µM (inactive); in the experiment with MCF7, 69.5 µM (inactive); with RXF 393 it was > 100 µM (inactive). The GI50 in the experiment on CCRF-CEM is 83.9 µM (inactive).
Turning to `O=C1CCCC2=C1CC1=C(CCCC1=O)N2c1ccccc1`, the GI50 was > 100 µM (inactive) in the experiment on HCC 2998; more than 100 µM in the experiment with HCT-15; > 100 µM (inactive) in the experiment on SK-OV-3; > 100 µM (inactive) in the experiment on SK-MEL-28; > 100 µM (inactive) in the experiment on SF-268; > 100 µM (inactive) in the experiment with UACC-62. In addition, the GI50 with NCI-H23, in the experiment on UO-31, with Hs-578T, in the experiment with SF-539, with M14 and in the experiment with SN12C was > 100 µM (inactive) each time. Besides, the GI50 is > 100 µM (inactive) with NCI-H460; > 100 µM (inactive) in the experiment with K562; > 100 µM (inactive) with OVCAR-8; > 100 µM (inactive) in the experiment with MCF7; 40.7 µM (inactive) with RXF 393; > 100 µM (inactive) with CCRF-CEM.
As for `Nc1nc(N)c(-c2ccc(Cl)cc2)c(CCC(=O)Nc2cccc(C(F)(F)F)c2)n1`, the GI50 was > 100 µM (inactive) with HCC 2998; more than 100 µM in the experiment with HCT-15; > 100 µM (inactive) with HOP-62; > 100 µM (inactive) with SK-OV-3; > 100 µM (inactive) in the experiment on SK-MEL-28; > 100 µM (inactive) with SF-268. Further, the GI50 with UACC-62, in the experiment on NCI-H23, in the experiment on UO-31, in the experiment with SF-539, in the experiment with M14 and with SN12C was > 100 µM (inactive) in each case. The GI50 in the experiment on NCI-H460, in the experiment on K562, in the experiment with OVCAR-8, in the experiment on RXF 393 and in the experiment on CCRF-CEM was > 100 µM (inactive) each time.
For the compound `CCN(CC)/N=N/c1c(C(N)=O)n[nH]c1C`, the GI50 with HCC 2998 is > 100 µM (inactive); in the experiment with HCT-15, 63.7 µM; in the experiment with HOP-62 it was 31.2 µM (inactive); in the experiment on SK-OV-3, 22.1 µM (inactive); in the experiment on SK-MEL-28, > 100 µM (inactive); in the experiment with SF-268, 39.3 µM (inactive). The GI50 in the experiment on UACC-62 is 35 µM (inactive); in the experiment on NCI-H23, 36.9 µM (inactive); in the experiment on UO-31 it was 20.7 µM (inactive); in the experiment with Hs-578T, 45.9 µM (inactive); in the experiment with SF-539 it was 29.5 µM (inactive); in the experiment with M14 it was > 100 µM (inactive). Further, the GI50 in the experiment on SN12C was 40.6 µM (inactive); in the experiment on NCI-H460 it was 31.2 µM (inactive); in the experiment with OVCAR-8, 49.4 µM (inactive); with MCF7 it was 30.5 µM (inactive); in the experiment on RXF 393, > 100 µM (inactive); in the experiment on CCRF-CEM, 18.3 µM (inactive).
